Assay results as given in paper PMC9138683, “Decoding the Role of Melatonin Structure on Plasmodium falciparum Human Malaria Parasites Synchronization Using 2-Sulfenylindoles Derivatives” (Biomolecules, 2022).
Entries after “also recorded” stand apart in the source; their conditions may differ.

Experiments:
[1] = tested on: P. falciparum 3D7 parasites; assay: Effects of indole derivatives (500 nM) on parasitemia; type: cell-based, Plasmodium falciparum; conditions: for Parasitemia (%), melatonin alone: normalized to DMSO control (100.6%), compound-alone experiment
Procedure: (§1) To evaluate the role of the compounds in parasitemia, 1% 3D7 parasites in 2% hematocrit were incubated for 48 h with 500 nM of the 2-sulfenylindole derivatives. Melatonin (100 nM) was used as a positive control, and DMSO (0.0013% v/v) was used as a negative control. The concentration of DMSO chosen as control was the concentration present in the tested compounds at 500 nM. The activity of the compounds was measured by SG-I and MT-Red staining. The data obtained were normalized to those of the control (DMSO). Additionally, to test the ability of the compounds to affect melatonin activity in parasitemia, 3D7 parasites were incubated with 500 nM indole compounds along with 100 nM melatonin for 48 h.
After incubation, the final parasitemia was determined using flow cytometry.

[2] = tested on: CDPKs, PKG, and its accessory genes; assay: Real-time PCR of CDPKs, PKG and accessory genes after melatonin treatment; type: cell-based, Plasmodium falciparum
Procedure: P. falciparum trophozoites (approximately 30–34 h post invasion) were treated with 100 nM and 1 µM melatonin (SIGMA-Aldrich, Burlington, MA, USA). RNA was extracted with Trizol (Life Technologies, Carlsbad, CA, USA) 1 and 3 h post treatment. cDNA synthesis was carried out using random primers and Superscript IV reverse transcriptase (Life Technologies) according to the manufacturer’s protocol. Oligonucleotides used are listed in Supplementary Table S1. SYBR Green incorporation was measured during PCR amplification performed on the 7300 Real-Time PCR System (Applied Biosystems, Foster City, CA, USA). The statistical analysis was performed by applying Student’s t-test on the log2 values of relative expression (delta delta Ct method) of the genes (normalized with the seryl t-RNA synthase housekeeping gene).
Previous studies have shown that melatonin alters the expression of the ubiquitin/proteasome system, mitochondrial FIS1, DYN2 [27], and nuclear PfMORC [28]. These findings lead us to investigate the effect of melatonin on kinases, phosphodiesterase, and cyclase for two reasons; first, kinases and their components are required for rupturing the parasites to facilitate egress in both asexual and sexual stages. […] We treated the late-stage trophozoite with two different melatonin concentrations (100 nM and 1 µM) for two time points (1 and 3 h). […] It is possible that melatonin may act upstream of PKG and modulates cytosolic calcium, but this hypothesis requires more experimental validation.
Figure 6 Differential transcription of CDPKs, PKG, and its accessory genes from parasites treated with melatonin for 1 and 3 h. Sorbitol synchronized parasites were treated with melatonin, and RNA samples were extracted, purified, and transcript level was investigated by RT-qPCR. Expression of genes has been normalized by housekeeping seryl-tRNA Synthetase expression for (A) 100 nM melatonin for 1 h; (B) 100 nM melatonin for 3 h; (C) 1 μM melatonin for 1 h; and (D) 1 μM melatonin for 3 h. […]

[3] = tested on: P. falciparum 3D7 parasites; assay: Effect of 2-sulfenylindoles in combination with 100 nM melatonin on parasitemia; type: cell-based, Plasmodium falciparum; conditions: 3D7, 48 h; for Parasitemia (%), melatonin alone: 100 nM melatonin only, normalized to DMSO control (100.7%), combination experiment
Procedure: as §1
Following the assumption that compounds resembling melatonin structure might interact through the melatonin signaling pathways, we evaluated the effect of the compounds on melatonin action on parasitemia. Our next step was to study the combination of 2-sulfenylindoles with melatonin in asynchronous 3D7 by incubating parasites simultaneously with 100 nM melatonin and 500 nM of each compound.

HEK293 cell line = assay: Cytotoxicity assay (MTT); type: cell-based, human; conditions: 72 h
Procedure: (§2) HEK293T (human embryonic kidney) cells were cultured in 75 cm^2 vented tissue culture flasks (Greiner Bio-One, Frickenhausen, Germany) at 37 °C in a humidified atmosphere containing 5% CO2 in Dulbecco’s modified […] (Gibco) supplemented with 10% (v/v) fetal bovine serum (Gibco), 100 U/mL penicillin, and 100 μg/mL streptomycin (Sigma). Cytotoxicity was evaluated with the 4,5-dimethylthiazol-2-yl-2,5-diphenyltetrazolium bromide (MTT) cell proliferation assay. Briefly, 10^4 cells/well were seeded in flat-bottom 96-well plates in complete DMEM medium for 24 h, followed by incubation with different concentrations of each compound (0.10–100 µM) for 72 h. DMSO (0.13%) and digitonin were used as the negative and positive controls, respectively. The concentrations of DMSO chosen as control were the concentration present in the tested compounds (from 0.0001% to 0.12%, two-fold dilution). After 72 h, cells were then incubated with the MTT reagent for 3 h, and absorbance was measured at 570 nm using a FlexStation® 3 Multi-Mode Microplate Reader (Molecular Devices, Sunnyvale, CA, USA). Moreover, we calculated the selectivity indexes (SI) to understand whether the compounds were more toxic to parasites than cells, or vice versa, according to the ratio of the CC50 value to the IC50 value for each compound.
(§3) We further assessed the toxicity of 2-sulfenylindole compounds against HEK293 cells using the MTT assay with different concentrations of the compounds for 72 h. Table 1 presents all the toxicity data and summarizes the IC50 values of the compounds evaluated in this study for Dd2 and 3D7 strains.

Cytotoxicity assay (MTT) = type: cell-based, human; conditions: human, HEK293T (HEK293) cells, 0.10-100 µM, read-out: CC50 ± SD HEK293
Procedure: as §2, §3

[4] = tested on: Plasmodium falciparum 3D7 (chloroquine-sensitive); assay: In vitro drug susceptibility assay, 3D7 strain (flow cytometry, SYBR Green I / MitoTracker Deep Red); type: cell-based; conditions: Plasmodium falciparum, 3D7, 72 h, asynchronous parasites, 72 h, 0.1-100 µM; read-out: IC50 ± SD Pf3D7
Procedure: The cultures were maintained under an atmosphere of 5% CO2, 5% O2, and 90% N2. Fresh complete medium was provided daily, and rapid-stained (Panotico) blood smears were examined.
To evaluate the effects of synthetic compounds on the intraerythrocytic development of P. falciparum, we analyzed parasitemia by flow cytometry with 0.3% initial parasitemia and 1% hematocrit in the assay. Plates were incubated with the compounds at concentrations ranging from 0.10 to 100 µM for 72 h. Dual staining with SYBR Green I (SG-I) (Invitrogen, Waltham, MA, USA) and MitoTracker Deep Red (MT-Red) (Invitrogen) were used to label nucleic acids and mitochondria, respectively. Approximately 10,000 cells were counted by an Accuri C6 (Becton Dickinson, San Jose, CA, USA) and analyzed by FlowJo 5 software. Parasitemia was determined from the analysis of dot plots (side scatter versus fluorescence).
We determined the susceptibility of P. falciparum to the indole compounds and investigated whether CQR parasites responded differently to the compounds. […] We determined the IC50 values for each compound by analyzing viable and non-viable parasites after compound treatment, represented in dot plots (Figure 1H).

P. falciparum 3D7 strain = assay: Blood-stage development evaluation by microscopy; type: cell-based, Plasmodium falciparum
Procedure: Ring-stage parasites (10–14 h) at 1% parasitemia in 2% hematocrit were treated with compound 20 and compound 28 at concentrations of 1 and 30 µM in 24-well plates for 48 h. Treatment with chloroquine (20 nM) and DMSO (0.1%) was used as positive and negative controls. Smears were rapid stained (Panotico) every 12 h after treatment (12, 24, 36, 48, and 60 h time points), and we took images of parasites to assess the blood-stage development (Zeiss, Oberkochen, Germany).
During monitoring, parasites continued to develop throughout the cycle in the presence of both compounds. […] To examine its stage specificity, we monitored development every 12 h.
Figure 5 Parasitemia reduction with compound 20 (A) and compound 28 (B) to determine the stage activity. Data are means ± SD. Ring-stage synchronized parasites with sorbitol 5% were treated with chloroquine (20 nM), compound 20 (30 µM), and compound 28 (30 µM). The chosen treatment concentration was the IC50 values obtained for these compounds against the 3D7 parasites. (C) After drug administration, smears of P. falciparum 3D7 strain were taken at 0, 12, 24, 36, 48, and 60 h after drug administration, observing the growth development of treated parasites. * p ≤ 0.05, ** p ≤ 0.01, *** p ≤ 0.001.

IC50 [4] [µM] | SMILES | rise in parasitemia ([1]; 100 nM melatonin, 3D7, 48 h, from 100.6% (control)) [%] | Parasitemia (%), melatonin alone ([1]; 100 nM melatonin, 3D7, 48 h) [%] | Parasitemia (%), melatonin alone ([1]; 100 nM melatonin, 3D7, 48 h, listed as melatonin) [%] | change in gene expression ([2]; 100 nM melatonin for 1 h, late-stage trophozoite, CDPK1 and GCα) | change in gene expression ([2]; 100 nM melatonin, after 3 h, additional CDPK6, CDPK7, PKG, PDEα, and GCβ) | change in gene expression ([2]; 1 µM melatonin for 3 h, cGMP-dependent signaling component) | Parasitemia (%), melatonin alone [3] [%] | Parasitemia (%), melatonin alone ([3]; listed as melatonin) [%] | cytotoxic effect against HEK293 cells (in words) (HEK293 cell line) | CC50 at 72 h (Cytotoxicity assay (MTT)) [µM] | effect on parasitemia (in words) ([1]; 500 nM compound alone, 3D7 asynchronous, 48 h) | increase in parasitemia ([1]; 500 nM compound, 3D7, 48 h, compared to DMSO control (100.6%)) [%] | activity at 0.5 µM ([1]; Plasmodium falciparum, 3D7, 48 h, normalized to DMSO control, read-out: Parasitemia (%) Treatment with compound (500nM)) [%] | effect on parasitemia during blood-stage progression (P. falciparum 3D7 strain; 3D7, ring-stage synchronized, 30 µM (IC50), Figure 5A,B) | stage-specific effect on blood-stage development (P. falciparum 3D7 strain; ring-stage synchronized 3D7, treated at IC50 (30 µM for 20 and 28), monitored every 12 h) | Parasitemia (%) Treatment with compound (500nM) + Melatonin (100nM) ([3]; normalized to DMSO control) [%]
– | COc1ccc2[nH]cc(CCNC(C)=O)c2c1 [Melatonin] | 6.9 | 107.5 ± 4.32 | 107.5 | very minor effect | increased expression | most prominent effect | 113.5 ± 2.75 | 113.5 | – | – | – | – | – | – | – | –
28.8 ± 4.86 | COC(=O)Cc1c(SCCCCCCCCCCC(=O)O)[nH]c2ccccc12 [Compound 20] | – | – | – | – | – | – | – | – | low cytotoxic effect | > 100 | led to an increase in parasitemia; also recorded: significantly increase the parasitemia | 9.1 | 110 ± 4.07 | significantly affect parasitemia | affects RBC reinvasion | 122.3 ± 3.71
